Values joined by “and” are separate entries in the source; they are usually repeats but may differ in a detail not shown here. Equal entries are not always repeated.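 Where inhibition never reached the appropriate level, the endpoint shown equals the highest concentration tested. Otherwise, values were interpolated linearly from a five-concentration, 48-hour dose response in 96-well plates. At the GI50, growth is halved. TGI: concentration producing complete growth inhibition.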
Key:
Assay in all cases: NCI-60 cell line screen, 48 h
[1] = tested on: A549 NSCLC
[2] = tested on: ACHN renal
[3] = tested on: HCT-116 colon
[4] = tested on: HOP-62 NSCLC
[5] = tested on: OVCAR-8 ovarian
[6] = tested on: SF-268 CNS
[7] = tested on: SF-295 CNS
[8] = tested on: SK-OV-3 ovarian
[9] = tested on: SR leukemia
[10] = tested on: TK-10 renal

Row | Compound | GI50 [1] | TGI [1] | GI50 [2] | TGI [2] | GI50 [3] | TGI [3] | GI50 [4] | TGI [4] | GI50 [5] | TGI [5] | GI50 [6] | TGI [6] | GI50 [7] | TGI [7] | GI50 [8] | TGI [8] | GI50 [9] | GI50 [10] | TGI [10] | TGI [9]
1 | O=C(c1ccc(OCCN2CCCCC2)cc1)c1c(-c2ccc(O)cc2)sc2cc(O)ccc12 | 13.2 µM and 14.3 µM | 29.3 µM and 37.9 µM | 13.5 µM and 14.7 µM | 27.2 µM and 28.2 µM | 3.68 µM and 8.5 µM | 14 µM and 42.7 µM | 10.4 µM and 15.4 µM | 22.2 µM and 43.8 µM | 13.4 µM and 18.2 µM | 31.5 µM and 51.3 µM | 6.67 µM and 12.8 µM | 20.1 µM and 35.5 µM | 2.99 µM and 7.88 µM | 11 µM and 28.5 µM | 11.3 µM and 14.2 µM | 23.3 µM and 30.4 µM | 3.16 µM and 1.88 µM | 16.7 µM and 16.3 µM | 31.8 µM and 33.3 µM | –
2 | COC(=O)[C@H]1[C@@H](O)[C@@]2(O)c3c(OC)cc(O[C@@H]4O[C@@H]([C@H](O)CO)CO[C@H]4OC)cc3O[C@@]2(c2ccc(OC)cc2)[C@@H]1c1ccccc1 | 0.00463 µM | 0.0457 µM | 0.0597 µM | 0.783 µM | 0.00371 µM | – | 0.00319 µM | 0.0181 µM | 0.0193 µM | 0.136 µM | 0.00342 µM | 0.0425 µM | 0.0127 µM | 0.0471 µM | 0.00296 µM | 0.0325 µM | 0.00341 µM | 0.0295 µM | 0.108 µM | 0.147 µM
3 | NC(=O)/C(=C\c1ccncc1)c1cccc2ccccc12 | – | > 100 µM | – | > 100 µM | – | > 100 µM | – | > 100 µM | – | > 100 µM | – | > 100 µM | – | > 100 µM | – | > 100 µM | – | – | > 100 µM | > 100 µM
4 | CCN1C(=O)N(CC)C2C1NN=c1s/c(=C\c3ccccc3F)c(=O)n12 (stereo unspecified) | 0.0419 µM | > 100 µM | 0.0522 µM | > 100 µM | 0.0333 µM | 14.3 µM | 0.0545 µM | > 100 µM | 0.0357 µM | – | 0.0679 µM | > 67.4 µM | 0.0242 µM | > 49.8 µM | 0.054 µM | 77.5 µM | 0.0278 µM | 1.68 µM | > 63.6 µM | > 74.7 µM
5 | O=C1/C=C/[C@@H](O)[C@@H]2C[C@@H](O)C[C@H]2/C=C/CCC[C@H](CCc2ccc(C(F)(F)F)cc2)O1 | 0.305 µM | > 100 µM | 0.41 µM | > 100 µM | 0.251 µM | 0.607 µM | 0.328 µM | 11 µM | 0.219 µM | > 100 µM | 0.371 µM | > 100 µM | 0.188 µM | 47.8 µM | 0.279 µM | 30.2 µM | 0.311 µM | 0.449 µM | 5.47 µM | 3.16 µM
6 | C=CCCOC(=O)CO[N+](=O)[O-] | – | > 100 µM | – | > 100 µM | – | > 100 µM | – | > 100 µM | – | > 100 µM | – | > 100 µM | – | > 100 µM | – | > 100 µM | – | – | > 100 µM | > 100 µM
7 | CN(C)CCCNC(=O)c1ccc2oc3cc4ccccc4c(=O)n3c2c1 | 27.6 µM | > 50 µM | 11.8 µM | > 50 µM | 30.8 µM | > 50 µM | > 50 µM | > 50 µM | 40.5 µM | > 50 µM | 15.4 µM | > 50 µM | 33.7 µM | > 50 µM | > 50 µM | > 50 µM | 30.8 µM | 10.3 µM | > 50 µM | > 50 µM
8 | CN1CCC(CNc2ccc3ncc(-c4cccc(OC(F)(F)F)c4)n3n2)CC1 | 1.85 µM and 2.3 µM | 4.97 µM and > 10 µM | 2.14 µM and 3.05 µM | 6.05 µM and > 10 µM | 1.83 µM and 1.7 µM | 3.94 µM and 4.33 µM | 1.84 µM and 3.44 µM | 4.25 µM and > 10 µM | 2.46 µM and 2.89 µM | 8.2 µM and > 10 µM | 1.57 µM and 3.2 µM | 3.64 µM and > 10 µM | 1.67 µM and 1.55 µM | 3.48 µM and 3.87 µM | 1.89 µM and 3.94 µM | 4.98 µM and > 10 µM | 1.9 µM and 1.7 µM | 2.36 µM and 2.16 µM | 8.52 µM and > 10 µM | 5.24 µM and 4.46 µM
9 | C=CCCCn1ccc2ccccc21 | – | > 100 µM | – | > 100 µM | – | > 100 µM | – | > 100 µM | – | > 100 µM | – | > 100 µM | – | > 100 µM | – | > 100 µM | – | – | > 100 µM | > 100 µM
10 | CC(=O)[O-].CC(=O)[O-].O=C(N/N=C/c1cc(Cl)cc(Cl)c1O)c1ccncc1.[Ni+2] | – | > 100 µM | – | > 100 µM | – | > 100 µM | – | > 100 µM | – | > 100 µM | – | > 100 µM | – | 67.2 µM | – | > 100 µM | – | – | > 100 µM | > 100 µM
11 | Cc1c(-c2ccccc2)c(=O)oc2ccc(Cl)cc12 | – | > 100 µM | – | – | – | > 100 µM | – | > 100 µM | – | > 100 µM | – | > 100 µM | – | > 100 µM | – | > 100 µM | – | – | > 100 µM | > 100 µM
12 | CCCCCCCCCCCCCCCCOCC(CN(C)CCN(C)C)OCCCCCCCCCCCCCCCC (stereo unspecified) | – | > 100 µM | – | > 100 µM | – | > 100 µM | – | > 100 µM | – | > 100 µM | – | > 100 µM | – | > 100 µM | – | > 100 µM | – | – | > 100 µM | > 100 µM
13 | CCN(CC)CCCC(C)Nc1cc(-c2ccc(C(F)(F)F)cc2)c(C#N)c2nc3ccccc3n12 (stereo unspecified) | 3.44 µM | 10.9 µM | 1.38 µM | 2.87 µM | 0.687 µM | 2.06 µM | 2.2 µM | 7.18 µM | 2.41 µM | 5.51 µM | 1.9 µM | 4.43 µM | 1.89 µM | 3.57 µM | 2.22 µM | 4.75 µM | 2.16 µM | 2.49 µM | 5.29 µM | 5.91 µM
14 | C=C(C)[C@@H]1CC[C@]2(C(N)=O)CC[C@]3(C)[C@H](CC[C@@H]4[C@@]5(C)CC[C@H](O)C(C)(C)[C@@H]5CC[C@]43C)[C@@H]12 | 2.11 µM | 5.39 µM | 2.44 µM | 6.82 µM | 1.97 µM | 3.96 µM | 3.21 µM | 12.8 µM | 3.12 µM | > 100 µM | 4.34 µM | > 100 µM | 3.39 µM | 24.8 µM | 8.18 µM | 29.8 µM | 4.14 µM | 2.79 µM | 7.59 µM | 23.5 µM

— PubChem BioAssay (NCI)
